Test results from patent publication US5620676A, “Biologically active ATP analogs” (priority 1995, dated 1997).

Columns and labels:
[1] = biological target: T1, P2X receptor (saphenous artery) (Oryctolagus cuniculus, UniProt G1U3D6); conditions: Burnstock et al., 1987a; cited from earlier work
T1 construct: and rabbit saphenous artery; from tissue; host or cells: rabbit saphenous artery
T1 sequence (G1U3D6 1-399): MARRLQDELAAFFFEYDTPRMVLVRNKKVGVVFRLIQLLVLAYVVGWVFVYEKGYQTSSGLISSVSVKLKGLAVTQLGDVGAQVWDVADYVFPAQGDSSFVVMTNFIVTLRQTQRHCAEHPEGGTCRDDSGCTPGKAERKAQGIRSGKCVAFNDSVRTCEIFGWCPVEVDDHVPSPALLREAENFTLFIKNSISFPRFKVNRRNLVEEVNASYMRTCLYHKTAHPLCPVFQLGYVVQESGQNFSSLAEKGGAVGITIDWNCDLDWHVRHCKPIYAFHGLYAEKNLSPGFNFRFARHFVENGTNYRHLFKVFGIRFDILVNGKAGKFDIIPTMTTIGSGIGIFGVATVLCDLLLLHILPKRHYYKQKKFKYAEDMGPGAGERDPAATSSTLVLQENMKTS

[2] = biological target: T2, P2X receptor (vas deferens) (Cavia porcellus, UniProt A0A286XVA9); assay: Contraction of guinea pig isolated vas deferens
T2 sequence (A0A286XVA9 1-399): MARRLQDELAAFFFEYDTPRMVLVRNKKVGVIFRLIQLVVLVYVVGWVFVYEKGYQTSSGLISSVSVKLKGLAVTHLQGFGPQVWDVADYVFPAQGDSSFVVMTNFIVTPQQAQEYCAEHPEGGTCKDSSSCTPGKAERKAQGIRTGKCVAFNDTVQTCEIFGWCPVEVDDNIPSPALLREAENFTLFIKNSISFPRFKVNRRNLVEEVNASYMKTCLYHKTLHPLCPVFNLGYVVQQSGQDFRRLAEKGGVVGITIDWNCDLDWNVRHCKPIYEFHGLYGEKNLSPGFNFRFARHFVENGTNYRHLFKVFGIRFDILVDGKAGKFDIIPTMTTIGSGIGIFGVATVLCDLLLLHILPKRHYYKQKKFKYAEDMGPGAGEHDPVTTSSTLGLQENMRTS
Text: Muscular relaxation/contraction: Relaxant responses mediated via P2Y receptors were examined in guinea pig taenia coli, rabbit aorta, and rabbit mesenteric artery, as described by Hoyle et al. (Br. J. Pharmacol., 107, 367-374 (1992a)), Burnstock et al., (Br. J. Pharmacol., 90, 383-391 (1987a)), and Rubino et al., (Eur. J. Pharmacol., 212, 237-240 (1992)). Contractile responses mediated via P2X receptors were examined in the guinea pig urinary bladder and vas deferens, and rabbit saphenous artery, also using standard methods (see Hoyle et al., supra., 1992; Hoyle et al., Br. J. Pharmacol., 99, 617-621 (1990); and Burnstock et al., Br. J. Pharmacol., 90, 111-120 (1987b)).
In FIG. 14, the x-axis is also marked in units of the negative log of the molar concentration of applied putative P2Y receptor agonists and the y-axis is marked in units of the percentage relaxation of the 1 μM noradrenalin-induced contraction of rabbit aorta endothelium. In FIGS. 15-16, the x-axis is marked in units of the negative log of the molar concentration of applied putative p^2X receptor agonists and the y-axis is marked in units of the percentage contraction relative to a standard dose of KCl (i.e., 60 mM), as assessed in guinea pig isolated urinary bladder detrussor muscle (FIG. 15) and guinea pig isolated vas deferens (FIG. 16).

[3] = biological target: T3, P2X receptor (urinary bladder) (Cavia porcellus, UniProt A0A286XVA9); assay: Contraction of guinea pig isolated urinary bladder detrussor muscle; conditions: guinea pig urinary bladder
T3 construct: guinea pig isolated urinary bladder detrussor muscle; from tissue; host or cells: guinea pig isolated urinary bladder detrusor muscle

[4] = biological target: T4, P2Y receptor (taenia coli) (Cavia porcellus, UniProt P59902); assay: Relaxation of carbachol-contracted guinea pig taenia coli; conditions: guinea pig taenia coli
T4 construct: Relaxant responses mediated via P2Y receptors were examined in guinea pig taenia coli; from tissue; host or cells: guinea pig taenia coli (carbachol-contracted)
How it was run: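 Guinea pig taenia coli precontracted with 50 nM carbachol; relaxation to applied P2Y agonists expressed as percentage relaxation against negative log molar agonist concentration.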

[5] = biological target: T3, P2X receptor (urinary bladder); conditions: cited from earlier work
[6] = biological target: T1, P2X receptor (saphenous artery); assay: Contraction of rabbit saphenous artery
How it was run: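 Contraction of isolated rabbit saphenous artery, standard organ-bath methods; responses at 10 μM expressed as percentage of contraction produced by 1 μM α,MeATP. Highest analogue concentrations tested were 3-30 […].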

[7] = biological target: T5, P2Y receptor (turkey erythrocyte membranes) (Meleagris gallopavo, UniProt P49652); assay: Stimulation of phospholipase C (inositol phosphate formation) in turkey erythrocyte membranes; format: biochemical; conditions: turkey erythrocyte membranes
T5 construct: from tissue; host or cells: washed turkey erythrocytes, ghosts prepared by hypotonic lysis
How it was run: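 Erythrocytes were labelled 18-24 h at 37 °C with [3H]myoinositol, and ghosts were made by hypotonic lysis. Ghosts (≈175 μg protein) were incubated 5 min at 30 °C in Hepes buffer pH 7.0 with 1 μM GTPγS and nucleotide analogs. Total [3H]inositol phosphates were purified by anion exchange; K0.5 averaged from 3-8 dose-response curves.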

[8] = biological target: T4, P2Y receptor (taenia coli); conditions: guinea pig taenia coli; log molar units; footnote e: literature data; cited from earlier work
[9] = biological target: T2, P2X receptor (vas deferens); conditions: guinea pig vas deferens; log molar units; footnote e: literature data; cited from earlier work
[10] = tested on: P2X receptor (vas deferens); conditions: Burnstock et al. 1985; cited from earlier work

T5 sequence (P49652 whole entry): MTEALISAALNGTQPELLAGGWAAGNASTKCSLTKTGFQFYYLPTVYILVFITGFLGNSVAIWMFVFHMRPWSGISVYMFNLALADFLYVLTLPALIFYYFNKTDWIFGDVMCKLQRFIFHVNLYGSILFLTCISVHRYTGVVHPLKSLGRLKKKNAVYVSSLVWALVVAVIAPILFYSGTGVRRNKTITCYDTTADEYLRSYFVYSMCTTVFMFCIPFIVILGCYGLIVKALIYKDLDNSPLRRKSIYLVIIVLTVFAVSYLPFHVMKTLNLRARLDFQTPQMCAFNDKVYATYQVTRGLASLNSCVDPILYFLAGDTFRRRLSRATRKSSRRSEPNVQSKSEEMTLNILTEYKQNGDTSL
T4 sequence (P59902 whole entry): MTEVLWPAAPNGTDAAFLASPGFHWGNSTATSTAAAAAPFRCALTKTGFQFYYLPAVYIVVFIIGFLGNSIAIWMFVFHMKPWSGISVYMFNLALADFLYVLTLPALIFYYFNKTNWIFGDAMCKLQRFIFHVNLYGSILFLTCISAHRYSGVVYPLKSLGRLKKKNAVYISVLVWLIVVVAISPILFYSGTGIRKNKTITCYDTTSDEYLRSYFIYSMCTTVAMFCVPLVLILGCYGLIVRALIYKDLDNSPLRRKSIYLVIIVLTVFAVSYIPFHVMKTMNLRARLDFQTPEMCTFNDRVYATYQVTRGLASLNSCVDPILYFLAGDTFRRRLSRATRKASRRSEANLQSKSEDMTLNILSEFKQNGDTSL

Nc1ncnc2c1ncn2[C@@H]1O[C@H](COP(=O)(O)CP(=O)(O)OP(=O)(O)O)[C@@H](O)[C@H]1O [a,β-Me-ATP, α,β-methylene-ATP]
activity in words, saphenous artery [1]: a potent constrictor
activity/potency in words, vas deferens [2]: markedly enhanced activity
activity/potency in words, bladder [3]: markedly enhanced activity
activity/potency in words, taenia coli [4]: reduced activity in the taenia coli
activity in words, urinary bladder ([5]; Burnstock et al. 1985): a potent constrictor
contraction pD2, bladder ([5]; guinea pig urinary bladder, log molar units, footnote e: literature data): 5.7
contraction produced by 1 μM, saphenous artery ([6]; rabbit saphenous artery, 1 μM): half maximal effect
activation at 10 µM ([6]; read-out: response at 10 μM relative to the contraction produced by 1 μM α,MeATP, saph. artery): 5.9%
activity/potency in words, turkey erythrocyte [7]: a very weak, yet full agonist
EC50 ([7]; mean ± S.E.M. for at least 2 determinations, read-out: phosphatidyl inositol metabolism (K0.5, nM) erythrocyte): > 100000 nM
relaxation pD2, taenia coli [8]: 5.6
contraction pD2, vas [9]: 5.3
activity in words, vas deferens [10]: a potent constrictor
